Tests used:
[1] = Double blind randomized clinical assay in women with low urinary tract infection treated with nitrofurantoin; assay type: in vivo, human
Description: Patients were ambulatory in the Urology Polyclinical of the Clinical Hospital of the University of Chile (HCUCH). Those that fulfilled the inclusion and exclusion criteria signed an informed consent to participate in the study. Patients were distributed randomly in the two following groups:
During the treatment, under medical and nursery checkup registers of adverse reactions, hemogram, biochemical profile, urocultive and determination of plasma antioxidant capacity were made.

[2] = cited from earlier work

**Q.** What does the source list for `O=C1CN(/N=C/c2ccc([N+](=O)[O-])o2)C(=O)N1` [nitrofurantoin, N-(5-nitro-2-furfuriliden)-1-aminohidantoin]?
**A.** Biochemical profile values compared with reference values ([1]; human, in vivo): not statistically different from reference values; Hemogram values compared with reference values ([1]; human, in vivo): not statistically different from reference values; Patients passed away because of the gastrointestinal adverse reactions ([1]; received only nitrofurantoin, 100 mg every 12 hours, 15 patients per group): 2 patients; Absorption ([2]; after oral administration): almost completely absorbed; Maximum plasma concentrations ([2]; oral): about 1 mg/L; Plasma half-life ([2]; oral, prolonged in renal insufficiency): 20 to 30 min

Reference: patent publication US8852654B2 (priority 2011, dated 2014)
